Assay results taken from article PMC11822212, “High-throughput screening identifies Aurora kinase B as a critical therapeutic target for Merkel cell carcinoma” (Nature Communications, 2025).
Where two headings read alike, the source gives them in different places.

Columns and labels:
Assay in all cases: qHTS cell viability (CellTiter-Glo, 72 h; primary and follow-up small molecule screen)
Format in all cases: cell-based, human
[1] = tested on: WAGA cells (VP-MCC)
[2] = tested on: MCC13 cells (VN-MCC)
[3] = tested on: UISO cells (VN-MCC)
[4] = tested on: MKL-1 cells (VP-MCC)
[5] = tested on: MCC26 cells (VN-MCC)
[6] = tested on: MKL-2 cells (VP-MCC)
[7] = follow-up screen, WAGA, replicate 1
[8] = follow-up screen, WAGA, replicate 2
[9] = follow-up screen, WAGA, replicate 3
[10] = follow-up screen, MCC13, replicate 1
[11] = follow-up screen, MCC13, replicate 2
[12] = follow-up screen, MCC13, replicate 3
[13] = follow-up screen, UISO, replicate 1
[14] = follow-up screen, UISO, replicate 2
[15] = follow-up screen, UISO, replicate 3
[16] = follow-up screen, MKL-1, replicate 1
[17] = follow-up screen, MKL-1, replicate 2
[18] = follow-up screen, MKL-1, replicate 3
[19] = follow-up screen, MCC26, replicate 1
[20] = follow-up screen, MCC26, replicate 2
[21] = follow-up screen, MCC26, replicate 3
[22] = follow-up screen, MKL-2, replicate 1
[23] = follow-up screen, MKL-2, replicate 2
[24] = follow-up screen, MKL-2, replicate 3

SMILES	Area under the dose-response curve (AUC) WAGA Replicate 1 [1, 7]	Area under the dose-response curve (AUC) WAGA Replicate 2 [1, 8]	Area under the dose-response curve (AUC) WAGA Replicate 3 [1, 9]	Area under the dose-response curve (AUC) MCC13 Replicate 1 [2, 10]	Area under the dose-response curve (AUC) MCC13 Replicate 2 [2, 11]	Area under the dose-response curve (AUC) MCC13 Replicate 3 [2, 12]	Area under the dose-response curve (AUC) UISO Replicate 1 [3, 13]	Area under the dose-response curve (AUC) UISO Replicate 2 [3, 14]	Area under the dose-response curve (AUC) UISO Replicate 3 [3, 15]	Area under the dose-response curve (AUC) MKL-1 Replicate 1 [4, 16]	Area under the dose-response curve (AUC) MKL-1 Replicate 2 [4, 17]	Area under the dose-response curve (AUC) MKL-1 Replicate 3 [4, 18]	Area under the dose-response curve (AUC) MCC26 Replicate 1 [5, 19]	Area under the dose-response curve (AUC) MCC26 Replicate 2 [5, 20]	Area under the dose-response curve (AUC) MCC26 Replicate 3 [5, 21]	Area under the dose-response curve (AUC) MKL-2 Replicate 1 [6, 22]	Area under the dose-response curve (AUC) MKL-2 Replicate 2 [6, 23]	Area under the dose-response curve (AUC) MKL-2 Replicate 3 [6, 24]	Area under the dose-response curve (AUC) WAGA Replicate 1 [1]	Area under the dose-response curve (AUC) WAGA Replicate 2 [1]	further results
CN[C@@H]1[C@H](O)[C@H](NC)[C@H]2O[C@@]3(O)C(=O)C[C@@H](C)O[C@H]3O[C@@H]2[C@H]1O.Cl.Cl.O.O.O.O.O [Spectinomycin hydrochloride]	531.5	530.5	510.1	504.6	484.6	486.4	480.2	491.5	485.2	495.1	464.4	515.8	469.4	428.8	486.9	495.5	540.4	501.9	–	–	–
O[C@H]1[C@H]2[C@H](O)CCCN2C[C@H]1O [Swainsonine]	–	–	–	–	–	–	–	–	–	–	–	–	–	–	–	–	–	–	517.4	504.3	Area under the dose-response curve (AUC) WAGA Replicate 3 [1]: 463.6; Area under the dose-response curve (AUC) MCC13 Replicate 1 [2]: 474.5; Area under the dose-response curve (AUC) MCC13 Replicate 2 [2]: 467.6; Area under the dose-response curve (AUC) MCC13 Replicate 3 [2]: 453.7; Area under the dose-response curve (AUC) UISO Replicate 1 [3]: 446.0; Area under the dose-response curve (AUC) UISO Replicate 2 [3]: 458.3; Area under the dose-response curve (AUC) UISO Replicate 3 [3]: 417.9; Area under the dose-response curve (AUC) MKL-1 Replicate 1 [4]: 483.5; Area under the dose-response curve (AUC) MKL-1 Replicate 2 [4]: 459.4; Area under the dose-response curve (AUC) MKL-1 Replicate 3 [4]: 455.2; Area under the dose-response curve (AUC) MCC26 Replicate 1 [5]: 425.6; Area under the dose-response curve (AUC) MCC26 Replicate 2 [5]: 420.4; Area under the dose-response curve (AUC) MCC26 Replicate 3 [5]: 449.5; Area under the dose-response curve (AUC) MKL-2 Replicate 1 [6]: 462.0; Area under the dose-response curve (AUC) MKL-2 Replicate 2 [6]: 456.2; Area under the dose-response curve (AUC) MKL-2 Replicate 3 [6]: 445.8
CC(/C=C/C(=O)NO)=C\[C@@H](C)C(=O)c1ccc(N(C)C)cc1 [TSA]	–	–	–	–	–	–	–	–	–	–	–	–	–	–	–	–	–	–	341.0	323.1	Area under the dose-response curve (AUC) WAGA Replicate 3 [1]: 341.7; Area under the dose-response curve (AUC) MCC13 Replicate 1 [2]: 419.6; Area under the dose-response curve (AUC) MCC13 Replicate 2 [2]: 438.9; Area under the dose-response curve (AUC) MCC13 Replicate 3 [2]: 399.7; Area under the dose-response curve (AUC) UISO Replicate 1 [3]: 357.7; Area under the dose-response curve (AUC) UISO Replicate 2 [3]: 378.3; Area under the dose-response curve (AUC) UISO Replicate 3 [3]: 338.8; Area under the dose-response curve (AUC) MKL-1 Replicate 1 [4]: 401.2; Area under the dose-response curve (AUC) MKL-1 Replicate 2 [4]: 324.1; Area under the dose-response curve (AUC) MKL-1 Replicate 3 [4]: 329.2; Area under the dose-response curve (AUC) MCC26 Replicate 1 [5]: 375.6; Area under the dose-response curve (AUC) MCC26 Replicate 2 [5]: 383.1; Area under the dose-response curve (AUC) MCC26 Replicate 3 [5]: 360.2; Area under the dose-response curve (AUC) MKL-2 Replicate 1 [6]: 276.9; Area under the dose-response curve (AUC) MKL-2 Replicate 2 [6]: 277.0; Area under the dose-response curve (AUC) MKL-2 Replicate 3 [6]: 326.7
C/C=C(/C)C(=O)O[C@H]1C(C)=C2[C@H]([C@@H]1OC(=O)CCCCCCC)[C@@](C)(OC(C)=O)C[C@H](OC(=O)CCC)[C@@]1(O)[C@H]2OC(=O)[C@@]1(C)O [Thapsigargin]	336.3	303.0	289.2	289.0	272.1	274.4	207.4	234.5	207.7	384.9	385.8	395.7	278.4	281.8	214.4	322.6	308.5	284.8	–	–	–
